These results are taken from ChEMBL document CHEMBL1122738, “A cyclic angiotensin antagonist: [1,8-cysteine]angiotensin II” (1984).

SMILES strings stand for the structures. Positions of bridges follow the written chain, without caps; N, C: chain ends. Residues, ends and D or L forms follow the SMILES beside them. Chains are numbered I, II in the order given.

The species named for this test is Rattus norvegicus. In words: Minimum effective concentration required to abolish the response to an ED75 dose of ANG II (10e-8 M) in the isolated rat uterus assay. In kind it is functional. The conditions noted are these: read-out: MEC.
On to `CC[C@H](C)[C@H](NC(=O)[C@H](Cc1ccc(O)cc1)NC(=O)[C@@H](NC(=O)[C@H](CCCN=C(N)N)NC(=O)[C@@H](N)CSCNC(C)=O)C(C)C)C(=O)N[C@@H](Cc1c[nH]cn1)C(=O)N1CCC[C@H]1C(=O)N[C@@H](CSCNC(C)=O)C(=O)O`, for which the minimal effective concentration amounted to 0.24 µM.

As for `CC[C@H](C)[C@@H]1NC(=O)[C@H](Cc2ccc(O)cc2)NC(=O)[C@H](C(C)C)NC(=O)[C@H](CCCN=C(N)N)NC(=O)[C@@H](N)CSSC[C@H](N)C(=O)N[C@@H](CCCN=C(N)N)C(=O)N[C@@H](C(C)C)C(=O)N[C@@H](Cc2ccc(O)cc2)C(=O)N[C@@H]([C@@H](C)CC)C(=O)N[C@@H](Cc2c[nH]cn2)C(=O)N2CCC[C@H]2C(=O)N[C@H](C(=O)O)CSSC[C@@H](C(=O)O)NC(=O)[C@@H]2CCCN2C(=O)[C@H](Cc2c[nH]cn2)NC1=O` (I: H-CRVYIHPC-OH / II: H-CRVYIHPC-OH; disulfide I:1-II:1, I:8-II:8), the minimal effective concentration stood at 9.6 µM.

As for `CC[C@H](C)[C@H](NC(=O)[C@@H]1CCCN1C(=O)[C@H](Cc1c[nH]cn1)NC(=O)[C@@H](NC(=O)[C@H](Cc1ccc(O)cc1)NC(=O)[C@@H](NC(=O)[C@H](CCCN=C(N)N)NC(=O)CNC)C(C)C)[C@@H](C)CC)C(=O)O`, the minimal effective concentration came out at 0.021 µM.

As for `CC[C@H](C)[C@@H]1NC(=O)[C@H](Cc2ccc(O)cc2)NC(=O)[C@H](C(C)C)NC(=O)[C@H](CCCN=C(N)N)NC(=O)[C@@H](N)CSSC[C@@H](C(=O)O)NC(=O)[C@@H]2CCCN2C(=O)[C@H](Cc2c[nH]cn2)NC1=O` (H-CRVYIHPC-OH; disulfide 1-8), the minimal effective concentration was 3.3 µM.
